Results on five compounds are retold here after patent US7192906B2, “Substituted pyrazole derivatives, production process thereof, and herbicide compositions containing the derivatives” (SDS Biotech K.K., priority 2001, dated 2007).

Assay type in all cases: in vivo
Series [1] relates to soybean (Glycine max). Description: Test Example 1 upland field foliage treatment, crop phytotoxicity. Conditions: Table 4, upland field foliage treatment, index 0-5. The procedure, abridged: (§1)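 Post-emergence foliar spray of water-diluted wettable powder at 1 kg active ingredient per hectare, applied 14 days after sowing in upland soil. Weed control or crop phytotoxicity rated 21 days later on a 0–5 scale (5: ≥90%, 0: <10%).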

Series [2] deals with wheat (Triticum aestivum). The series is described as above. To be noted: Table 4, upland field foliage treatment, index 0-5. The procedure, abridged: as §1
In series [3] the test system is soybean (Glycine max). Kind of series: Test Example 2 upland soil treatment, crop phytotoxicity. Conditions: Table 5, upland soil treatment, index 0-5. On the procedure:
(§2) A plastic pot of 130 cm^2 was filled with upland soil. Subsequently, weed seeds of Setaria viridis, Digitaria adscendens, Chenopodium album and Stellaria media, and crop seeds of soybean (Glycine max) and wheat (Triticum aestivum), were sowed and covered with soil of about 1 cm thickness. On the next day after the sowing, the wettable powder prepared in Formulation Example 1 was diluted with water such that the amount of the active ingredient became 1 kg per hectare, and then uniformly applied to the soil surface. On the 21st day after the application, observation and evaluation were carried out according to the aforesaid criteria.
(§3) Herbicidal activity was evaluated based on the following criteria.
(§4) • 5: herbicidal effect of not less than 90%, or phytotoxicity of 90% or more • 4: herbicidal effect of not less than 70% and less than 90%, or phytotoxicity of 70% or more and less than 90% • 3: herbicidal effect of not less than 50% and less than 70%, or phytotoxicity of 50% or more and less than 70% • 2: herbicidal effect of not less than 30% and less than 50%, or phytotoxicity of 30% or more and less than 50% • 1: herbicidal effect of not less than 10% and less than 30%, or phytotoxicity of 10% or more and less than 30% • 0: herbicidal effect of not less than 0% and less than 10%, or phytotoxicity of 0% or more and less than 10%

Series [4] relates to wheat (Triticum aestivum). Described as above. To be noted: Table 5, upland soil treatment, index 0-5. On the procedure:
as §2, §3, §4

Series [5] relates to Chenopodium album. Kind of series: Test Example 1 upland field foliage treatment. To be noted: Table 4, upland field foliage treatment, index 0-5. The procedure, abridged:
as §1

In series [6] the test system is Setaria viridis. Description: Test Example 1 upland field foliage treatment. Conditions: Table 4, upland field foliage treatment, index 0-5. In short, it runs like this: as §1
Series [7] relates to Digitaria adscendens. Kind of series: Test Example 1 upland field foliage treatment. Conditions: Table 4, upland field foliage treatment, index 0-5. In short, it runs like this: as §1
Series [8] concerns Stellaria media. Kind of series: Test Example 1 upland field foliage treatment. Conditions: Table 4, upland field foliage treatment, index 0-5. The procedure, abridged: as §1
Series [9] concerns Chenopodium album. Description: Test Example 2 upland soil treatment. To be noted: Table 5, upland soil treatment, index 0-5. On the procedure: as §2, §3, §4
Series [10] has as its system Setaria viridis. Kind of series: Test Example 2 upland soil treatment. Conditions: Table 5, upland soil treatment, index 0-5. The protocol: as §2, §3, §4
Series [11] has as its system Digitaria adscendens. Kind of series: Test Example 2 upland soil treatment. To be noted: Table 5, upland soil treatment, index 0-5. On the procedure:
as §2, §3, §4

Series [12] deals with Stellaria media. Description: Test Example 2 upland soil treatment. Conditions: Table 5, upland soil treatment, index 0-5. On the procedure: as §2, §3, §4

For the compound `CNC(=O)C(Cn1cc(C)c(-c2ccc(OCc3ccccc3)cc2)n1)=NOC` [Compound 54], the “Herbicidal activity (phytotoxicity) GM: Soybean (Glycine max)” value (“Herbicidal activity (phytotoxicity) GM” for short) in series [1] is 0 (herbicidal effect of not less than 0% and less than 10%, or phytotoxicity of 0% or more and less than 10%); in series [3], 0 (herbicidal effect of not less than 0% and less than 10%, or phytotoxicity of 0% or more and less than 10%). Also, the “Herbicidal activity (phytotoxicity) TA: Wheat (Triticum aestivum)” value (“Herbicidal activity (phytotoxicity) TA” for short) in [2] is 0 (herbicidal effect of not less than 0% and less than 10%, or phytotoxicity of 0% or more and less than 10%); in series [4], 0 (herbicidal effect of not less than 0% and less than 10%, or phytotoxicity of 0% or more and less than 10%). Further, the “Herbicidal activity CA: Chenopodium album” value (“Herbicidal activity CA” for short) in [5] was 4 (herbicidal effect of not less than 70% and less than 90%, or phytotoxicity of 70% or more and less than 90%); in series [9], 5 (herbicidal effect of not less than 90%, or phytotoxicity of 90% or more). For the same compound, the “Herbicidal activity SV: Setaria viridis” value in [6] is 4 (herbicidal effect of not less than 70% and less than 90%, or phytotoxicity of 70% or more and less than 90%); in series [10], 3 (herbicidal effect of not less than 50% and less than 70%, or phytotoxicity of 50% or more and less than 70%). Besides, the “Herbicidal activity DA: Digitaria adscendens” value (“Herbicidal activity DA” for short) was 5 (herbicidal effect of not less than 90%, or phytotoxicity of 90% or more) in series [7]; 4 (herbicidal effect of not less than 70% and less than 90%, or phytotoxicity of 70% or more and less than 90%) in [11]. The “Herbicidal activity SM: Stellaria media” value is 4 (herbicidal effect of not less than 70% and less than 90%, or phytotoxicity of 70% or more and less than 90%) in [8]; 5 (herbicidal effect of not less than 90%, or phytotoxicity of 90% or more) in series [12].

For `CNC(=O)C(Cn1cc(C)c(-c2ccc(SC(F)(F)F)cc2)n1)=NOC` [Compound 70], the “Herbicidal activity (phytotoxicity) GM” value is 0 (herbicidal effect of not less than 0% and less than 10%, or phytotoxicity of 0% or more and less than 10%) in [1]; 0 (herbicidal effect of not less than 0% and less than 10%, or phytotoxicity of 0% or more and less than 10%) in series [3]. Besides, the “Herbicidal activity (phytotoxicity) TA” value in series [2] was 0 (herbicidal effect of not less than 0% and less than 10%, or phytotoxicity of 0% or more and less than 10%); in series [4], 0 (herbicidal effect of not less than 0% and less than 10%, or phytotoxicity of 0% or more and less than 10%). The “Herbicidal activity CA” value in series [5] is 5 (herbicidal effect of not less than 90%, or phytotoxicity of 90% or more); in series [9], 4 (herbicidal effect of not less than 70% and less than 90%, or phytotoxicity of 70% or more and less than 90%). The “Herbicidal activity SV: Setaria viridis” value in [6] was 4 (herbicidal effect of not less than 70% and less than 90%, or phytotoxicity of 70% or more and less than 90%); in series [10], 3 (herbicidal effect of not less than 50% and less than 70%, or phytotoxicity of 50% or more and less than 70%). The “Herbicidal activity DA” value in series [7] is 5 (herbicidal effect of not less than 90%, or phytotoxicity of 90% or more); in series [11] it was 3 (herbicidal effect of not less than 50% and less than 70%, or phytotoxicity of 50% or more and less than 70%). For the same compound, the “Herbicidal activity SM: Stellaria media” value in series [8] was 4 (herbicidal effect of not less than 70% and less than 90%, or phytotoxicity of 70% or more and less than 90%); in [12], 4 (herbicidal effect of not less than 70% and less than 90%, or phytotoxicity of 70% or more and less than 90%).

Turning to `CNC(=O)C(Cn1cc(C)c(-c2ccc(C)c(F)c2)n1)=NOC` [Compound 74], the “Herbicidal activity (phytotoxicity) GM” value in series [1] is 0 (herbicidal effect of not less than 0% and less than 10%, or phytotoxicity of 0% or more and less than 10%); in series [3], 1 (herbicidal effect of not less than 10% and less than 30%, or phytotoxicity of 10% or more and less than 30%). The “Herbicidal activity (phytotoxicity) TA” value in [2] is 0 (herbicidal effect of not less than 0% and less than 10%, or phytotoxicity of 0% or more and less than 10%); in series [4], 0 (herbicidal effect of not less than 0% and less than 10%, or phytotoxicity of 0% or more and less than 10%). Also, the “Herbicidal activity CA” value was 5 (herbicidal effect of not less than 90%, or phytotoxicity of 90% or more) in series [5] and 5 (herbicidal effect of not less than 90%, or phytotoxicity of 90% or more) in series [9]. Further, the “Herbicidal activity SV: Setaria viridis” value in [6] was 5 (herbicidal effect of not less than 90%, or phytotoxicity of 90% or more); in series [10], 4 (herbicidal effect of not less than 70% and less than 90%, or phytotoxicity of 70% or more and less than 90%). Besides, the “Herbicidal activity DA” value is listed as 5 (herbicidal effect of not less than 90%, or phytotoxicity of 90% or more) in [7] and 5 (herbicidal effect of not less than 90%, or phytotoxicity of 90% or more) in [11]. The “Herbicidal activity SM: Stellaria media” value in series [8] was 5 (herbicidal effect of not less than 90%, or phytotoxicity of 90% or more); in series [12], 5 (herbicidal effect of not less than 90%, or phytotoxicity of 90% or more).

As for `CNC(=O)C(Cn1cc(C)c(-c2ccc(F)c(C)c2)n1)=NOC` [Compound 75], the “Herbicidal activity (phytotoxicity) GM” value was 0 (herbicidal effect of not less than 0% and less than 10%, or phytotoxicity of 0% or more and less than 10%) in series [1]; 1 (herbicidal effect of not less than 10% and less than 30%, or phytotoxicity of 10% or more and less than 30%) in [3]. The “Herbicidal activity (phytotoxicity) TA” value in series [2] is 0 (herbicidal effect of not less than 0% and less than 10%, or phytotoxicity of 0% or more and less than 10%); in series [4] it was 0 (herbicidal effect of not less than 0% and less than 10%, or phytotoxicity of 0% or more and less than 10%). Further, the “Herbicidal activity CA” value is listed as 5 (herbicidal effect of not less than 90%, or phytotoxicity of 90% or more) in series [5] and 5 (herbicidal effect of not less than 90%, or phytotoxicity of 90% or more) in series [9]. Besides, the “Herbicidal activity SV: Setaria viridis” value in series [6] is 5 (herbicidal effect of not less than 90%, or phytotoxicity of 90% or more); in series [10], 4 (herbicidal effect of not less than 70% and less than 90%, or phytotoxicity of 70% or more and less than 90%). For the same compound, the “Herbicidal activity DA” value in series [7] is 5 (herbicidal effect of not less than 90%, or phytotoxicity of 90% or more); in [11], 4 (herbicidal effect of not less than 70% and less than 90%, or phytotoxicity of 70% or more and less than 90%). Also, the “Herbicidal activity SM: Stellaria media” value is recorded as 5 (herbicidal effect of not less than 90%, or phytotoxicity of 90% or more) in series [8] and 5 (herbicidal effect of not less than 90%, or phytotoxicity of 90% or more) in series [12].

Consider `CNC(=O)C(Cn1cc(C)c(-c2ccc(F)cc2Cl)n1)=NOC` [Compound 82], for which the “Herbicidal activity (phytotoxicity) GM” value in series [1] is 0 (herbicidal effect of not less than 0% and less than 10%, or phytotoxicity of 0% or more and less than 10%); in [3] it was 0 (herbicidal effect of not less than 0% and less than 10%, or phytotoxicity of 0% or more and less than 10%). Further, the “Herbicidal activity (phytotoxicity) TA” value in [2] is 0 (herbicidal effect of not less than 0% and less than 10%, or phytotoxicity of 0% or more and less than 10%); in series [4], 0 (herbicidal effect of not less than 0% and less than 10%, or phytotoxicity of 0% or more and less than 10%). Further, the “Herbicidal activity CA” value in series [5] is 4 (herbicidal effect of not less than 70% and less than 90%, or phytotoxicity of 70% or more and less than 90%); in [9], 4 (herbicidal effect of not less than 70% and less than 90%, or phytotoxicity of 70% or more and less than 90%). Besides, the “Herbicidal activity SV: Setaria viridis” value in series [6] is 3 (herbicidal effect of not less than 50% and less than 70%, or phytotoxicity of 50% or more and less than 70%); in [10], 4 (herbicidal effect of not less than 70% and less than 90%, or phytotoxicity of 70% or more and less than 90%). Further, the “Herbicidal activity DA” value in [7] is reported as 5 (herbicidal effect of not less than 90%, or phytotoxicity of 90% or more); in series [11] it was 5 (herbicidal effect of not less than 90%, or phytotoxicity of 90% or more). Besides, the “Herbicidal activity SM: Stellaria media” value in [8] is 4 (herbicidal effect of not less than 70% and less than 90%, or phytotoxicity of 70% or more and less than 90%); in [12], 5 (herbicidal effect of not less than 90%, or phytotoxicity of 90% or more).
